Consider 12 molecules from publication PMC7160333, “Physiological Role of Glutamate Dehydrogenase in Cancer Cells” (Frontiers in Oncology, 2020).

Like-named read-outs stand apart in the source and are kept apart here. Where only a bound is given, the exact number is not on record here.

Experiment [1] deals with HepM GDH1 (Rattus norvegicus, UniProt P10860). Nature of the experiment: GDH reverse (aminating) reaction activity in hepatoma mitochondria (HepM). As to conditions: for Vmax at given ADP concentration: HepM GDH, pH 7.50, 37°C, 280 μg protein, MWC fit, representative experiment; for EC50: Hill equation; for Ki: saturating ADP, read-out: Ki GTP. It counts as biochemical. The protocol: (§1) Tightly coupled mitochondria were isolated from fed-rat liver (RLM) and AS-30D cells (HepM) as described elsewhere ([89], [90]). […] The resulting mitochondrial fractions were resuspended at 30 to 80 mg protein/mL in SHE buffer with 1 mM PMSF, 1 mM EDTA, 5 mM DTT, and 10% glycerol, and stored at −70°C until use for determination of enzyme activity and Western blotting.

Experiment [2] has as its target RLM GDH1 (Rattus norvegicus, UniProt P10860). The experiment in a line: GDH reverse (aminating) reaction activity in rat liver mitochondria (RLM). It counts as biochemical. As to conditions: for Vmax at given ADP concentration: RLM GDH, pH 7.50, 37°C, 90 μg protein, MWC fit, representative experiment; for EC50: Hill equation; for Ki: saturating ADP, read-out: Ki GTP. Here is the method:
as §1

Experiment [3] deals with recombinant human GDH isoforms (GDH1 and GDH2), bovine liver GDH, Ox brain GDH, dogfish liver GDH, rat brain GDH, and bovine brain GDH isoforms. Further details: method as in PMID 4381532, PMID 7588764, PMID 17924438, PMID 23420347, PMID 7190024. The following applies: pH range of 7.4–8.7, cited from earlier work.
The target of experiment [4] is GDH in HepM and RLM (Rattus norvegicus, UniProt P10860). The experiment in a line: GDH reverse reaction kinetics, summary statements for HepM and RLM. It counts as biochemical. The following applies: summary of Table 2.
Procedure: (§2) The decrease in the absorbance at 340 nm was followed for several minutes (~10 min) to allow for full development of the pronounced enzyme hysteretic behavior, although the initial signal decrease (1–3 min) was taken to calculate the GDH rates. The protein concentration ranges used for each mitochondrial type were well within the linearity range of enzyme activity. To calculate the kinetic parameters, the experimental data were fitted by non-linear regression analysis to the Hill or MWC equation, using the Microcal Origin 5.0 software (OriginLab, Northampton, MA, USA).
In experiment [5] the target is GDH1 (Rattus norvegicus, UniProt P10860). The experiment in a line: Effect of Mg2+ and spermidine on GDH1 activity. In kind it is biochemical.
Procedure: as §2
The subject of experiment [6] is mammalian liver and brain GDHs. Further details: method as in PMID 3701332, PMID 7588764, PMID 7190024, PMID 4052048, PMID 1366782. As to conditions: cited from earlier work.
In experiment [7] the test system is prostate cancer, renal cancer, and leukemia cell lines. Further details: method as in PMID 1372534, PMID 12820434. As to conditions: cited from earlier work.
Experiment [8] deals with tumors. Further details: method as in PMID 10071293. The following applies: clinical trials; cited from earlier work.

RLM GDH1, sequence (P10860 54-558): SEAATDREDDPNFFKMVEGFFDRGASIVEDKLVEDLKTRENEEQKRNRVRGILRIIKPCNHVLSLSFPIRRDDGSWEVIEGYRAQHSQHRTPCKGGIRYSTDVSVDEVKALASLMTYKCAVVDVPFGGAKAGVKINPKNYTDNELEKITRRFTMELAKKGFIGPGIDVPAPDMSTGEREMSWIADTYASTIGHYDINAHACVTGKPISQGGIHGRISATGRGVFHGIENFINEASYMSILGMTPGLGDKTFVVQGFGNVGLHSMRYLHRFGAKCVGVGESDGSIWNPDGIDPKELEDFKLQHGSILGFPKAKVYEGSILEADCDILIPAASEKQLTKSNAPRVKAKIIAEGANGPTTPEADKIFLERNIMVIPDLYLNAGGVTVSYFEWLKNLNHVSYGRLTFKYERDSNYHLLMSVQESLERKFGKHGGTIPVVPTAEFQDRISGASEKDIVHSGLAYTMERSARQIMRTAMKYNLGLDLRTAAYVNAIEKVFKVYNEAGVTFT
GDH1, sequence (P10860 54-558): as above
HepM GDH1, sequence (P10860 54-558): as above
GDH in HepM and RLM, sequence (P10860 54-558): as above

By Km is commonly meant the substrate concentration at which the rate is half of its maximum. On to `O=C(O)CCC(=O)C(=O)O` [2-OG, 2-oxoglutarate], for which the Km in experiment [1] (HepM, pH 7.2, Michaelis–Menten, read-out: Km 2-OG) is 442 ± 160 µM; in experiment [1] (HepM, pH 7.5, Michaelis–Menten, read-out: Km 2-OG) it was 733 ± 325 µM; in experiment [2] (RLM, pH 7.2, Michaelis–Menten, read-out: Km 2-OG), 371 ± 232 µM; in experiment [2] (RLM, pH 7.5, Michaelis–Menten, read-out: Km 2-OG), 396 ± 75 µM; in experiment [3] (read-out: Km 2OG), 470 to 4500 µM.

Turning to `Nc1ncnc2c1ncn2[C@@H]1O[C@H](COP(=O)(O)OP(=O)(O)O)[C@@H](O)[C@H]1O` [ADP], the “Vmax at given ADP concentration” value in experiment [1] (0.13 mM ADP) is 0.037 ± 0.009 ΔAbs/min; in experiment [1] (0.5 mM ADP) it was 0.153 ± 0.008 ΔAbs/min; in experiment [1] (1.5 mM ADP), 0.193 ± 0.011 ΔAbs/min; in experiment [1] ([…] ADP), 0.099 ± 0.010 ΔAbs/min; in experiment [2] (0.25 mM ADP) it was 0.131 ± 0.113 ΔAbs/min; in experiment [2] (0.75 mM ADP), 0.295 ± 0.022 ΔAbs/min. The “Vmax at given ADP concentration” value in experiment [2] (2.1 mM ADP) is listed as 0.367 ± 0.024 ΔAbs/min. The “nH (Hill coefficient) for ADP” value amounted to 2.77 ± 0.7 in experiment [1] (HepM, pH 7.2, Hill equation); 2.6 ± 0.4 in experiment [1] (HepM, pH 7.5, Hill equation); 2.4 ± 0.3 in experiment [2] (RLM, pH 7.2, Hill equation); 2.34 in experiment [2] (RLM, pH 7.5, Hill equation). In addition, the “Ka ADP (activation constant)” value is listed as 0.42 ± 0.26 (3) mM in experiment [1] (HepM, pH 7.2, MWC equation); 0.44 ± 0.37 (3) mM in experiment [1] (HepM, pH 7.5, MWC equation); 0.51 ± 0.14 (5) mM in experiment [2] (RLM, pH 7.2, MWC equation); 0.11 ± 0.14 (4) mM in experiment [2] (RLM, pH 7.5, MWC equation). Moreover, the EC50 in experiment [1] (HepM, pH 7.2, allosteric activator, read-out: K0.5 ADP) came out at 564 ± 167 µM; in experiment [1] (HepM, pH 7.5, allosteric activator, read-out: K0.5 ADP) it was 281 ± 134 µM; in experiment [2] (RLM, pH 7.2, allosteric activator, read-out: K0.5 ADP), 567 ± 125 µM; in experiment [2] (RLM, pH 7.5, allosteric activator, read-out: K0.5 ADP), 285 µM. Further, in experiment [4], the “Hill coefficient (nH) when varying ADP” value was 2.3–2.8.

One may read the Ki as a dissociation constant, usually derived from enzyme kinetics or from competition with a known ligand. What is called IC50 is the concentration needed to halve the response being measured. Low values mean higher potency, high ones lower potency. `Nc1nc2c(ncn2[C@@H]2O[C@H](COP(=O)(O)OP(=O)(O)OP(=O)(O)O)[C@@H](O)[C@H]2O)c(=O)[nH]1` [GTP]: the Ki in experiment [1] (HepM, pH 7.2, MWC equation) amounted to 28 ± 27 µM; in experiment [1] (HepM, pH 7.5, MWC equation), 64 ± 59 µM; in experiment [2] (RLM, pH 7.2, MWC equation), 60 ± 10 µM; in experiment [2] (RLM, pH 7.5, MWC equation), 31.7 ± 7 µM. Also, the IC50 in experiment [1] (HepM, pH 7.2, reverse reaction) came out at 114 ± 29 µM; in experiment [2] (RLM, pH 7.2, reverse reaction) it was 139 ± 21 µM; in experiment [2] (RLM, pH 7.5, reverse reaction) it was 244 µM.

On to `CC(C)C[C@H](N)C(=O)O` [Leu, L-leucine], for which the “nH (Hill coefficient) for Leu” value in experiment [1] (HepM, pH 7.2, Hill equation) is reported as 2.8; in experiment [2] (RLM, pH 7.2, Hill equation), 2.75. Further, the EC50 in experiment [1] (HepM, pH 7.2, activator, read-out: K0.5 Leu) is 2600 µM; in experiment [2] (RLM, pH 7.2, activator, read-out: K0.5 Leu) it was 3900 µM.

Take `[Cl-].[Cl-].[Mg+2]` [Mg^2+, MgCl2]: the “Effect on GDH1 activity” value in experiment [5] (0- to 0.4-mM added MgCl2) is reported as “not affected”. Moreover, the results for the “Inhibition of GDH1 activity” value in experiment [5] (1 mM Mg^2+) and in experiment [5] (2 mM Mg^2+) were below 10% and ~ 20%, respectively.

In the case of `NC(=O)C1=CN([C@@H]2O[C@H](COP(=O)(O)OP(=O)(O)OC[C@H]3O[C@@H](n4cnc5c(N)ncnc54)[C@H](O)[C@@H]3O)[C@@H](O)[C@H]2O)C=CC1` [NADH], the Michaelis constant (Km) in experiment [6] was 28 to 120 µM.

Take `NC(=O)C1=CN([C@@H]2O[C@H](COP(=O)(O)OP(=O)(O)OC[C@H]3O[C@@H](n4cnc5c(N)ncnc54)[C@H](OP(=O)(O)O)[C@@H]3O)[C@@H](O)[C@H]2O)C=CC1` [NADPH]: the Km in experiment [1] (read-out: Km NADPH, HepM, pH 7.2, Michaelis–Menten) was 46 ± 14 µM; in experiment [1] (read-out: Km NADPH, HepM, pH 7.5, Michaelis–Menten) it was 109 ± 4 µM; in experiment [2] (read-out: Km NADPH, RLM, pH 7.5, Michaelis–Menten) it was 133 ± 28 µM; in experiment [3] (read-out: Km NADPH), 20 to 120 µM; in experiment [6], 22 to 120 µM.

Take `NC(=O)c1ccc[n+]([C@@H]2O[C@H](COP(=O)([O-])OP(=O)(O)OC[C@H]3O[C@@H](n4cnc5c(N)ncnc54)[C@H](OP(=O)(O)O)[C@@H]3O)[C@@H](O)[C@H]2O)c1` [NADP^+]: the Km in experiment [6] was 160 to 1220 µM.

Take `NC(=O)c1ccc[n+]([C@@H]2O[C@H](COP(=O)([O-])OP(=O)(O)OC[C@H]3O[C@@H](n4cnc5c(N)ncnc54)[C@H](O)[C@@H]3O)[C@@H](O)[C@H]2O)c1` [NAD^+]: the Km in experiment [6] was 170 to 830 µM.

With `O=C(O)CCCc1ccccc1` [Phenylbutyrate, phenylbutyrate], in experiment [7], the “Growth of cell lines” value was “arrests growth”.

One may read the inhibition as the percentage by which the read-out fell short of the control. Regarding `NCCCCNCCCN` [Spermidine], the “Effect on GDH activity” value in experiment [5] (spermidine 0–5 mM, data not shown) is “innocuous”. The inhibition at 20000 µM in experiment [5] (spermidine 20 mM, data not shown, read-out: Inhibition of GDH activity) was 20%.

As for `O=C(O)Cc1ccccc1` [phenylacetate], the Antitumor activity result in experiment [8] is “negligible antitumor activity”. Moreover, the “Growth of cell lines” value in experiment [7] is on record as “arrests growth”.
